“Also recorded” adds a separate entry of the source.
Assays:
[1] = test system: MCF-7/HER-218 tumors; assay: Athymic nude mouse model, MCF-7/HER-218 tumor growth; format: in vivo, mice; conditions: continued estrogen, or estrogen withdrawal plus tamoxifen, compared to estrogen withdrawal alone
Protocol: Ovariectomised female BALB/c-nu+/nu+ mice 4-5 weeks of age were purchased from Harlan Sprague-Dawley (Madison, Wis.). […] Estrogen pellets (0.25 mg, 21 day release) were purchased from Innovative Research (Rockville, Md.) and half a pellet placed subcutaneously in the interscapular area of each animal on the day prior to cell injection. MCF-7/HER-218 cells were grown in 150 cm^3 flasks and split 1:5 in DMEM (Invitrogen, Calif.) supplemented with 10% FBS. When flask cell confluence reached 90-100%, cells were harvested using a soft rubber scraper, then spun down at 1000 rpm for 3 minutes, and resuspended in the original media for injection. Cells were injected at 5×10^6−1×10^7 in 0.2 ml per animal in the right mammary fat pad. […] Each individual group had 8 animals (n=8). […] Tumors were subsequently measured weekly and recorded according to the formula: Tumor volume=width^2×length/2. Animal were weighed every 2 weeks and monitored for toxicity. Tumor growth curves were constructed using the mean of tumors' volume at each measurement point with the error bars representing the standard error of the mean. Student's t-test was used to compare data between two groups. Values are expressed as relative to tumor volume to size at the beginning of treatment as mean ±s.d.

[2] = test system: ER, EGF-R, HER-2/neu, MAPK and AKT in parental MCF-7 cells; assay: Phosphorylation analysis by western immunoblotting; conditions: for Phosphorylation of EGF-R and HER-2/neu / Phosphorylation of ER on serine 118 / Phosphorylation of MAPK and AKT: short-term (20 minutes)
Protocol: (§2) Treatments of cells with E2, 4HOT, EGF or HRG were conducted after cells were starved in phenol red-free, serum-free IMEM for 24 hr.
(§3) Treated cells were then immediately harvested. Cells were first rinsed twice with cold PBS, and lysed in 1×cell lysis buffer (Cell Signaling Technology) supplemented with 10% Glycerol, 1 mM Pherryl Methylsulfonyl Fluoride (PMSF), 1×Complete Protease inhibitor mixture (Roche, Indianapolis, Ind.), 1 μM Okadaic acid, 10 μg/mL Microsystin as instruction from Cell Signaling Technology. Protein concentration was measured by Bio-Rad Protein Assay kit (Bio-Rad, Hercules, Calif.) according to manufacturer's instruction. 20 μg of protein extracts from individual treatments were electrophoresized on SDS-PAGE gel (Invitrogen), and electroblotted to nitrocellulose membrane (Millipore, Bedford, Mass.). Membranes were blocked with blocking buffer (5% w/v nonfat dry milk in 1×TBS with 0.1% Tween-20, TBST) for 1 hr and then incubated with primary antibody in 5% BSA TBST (for all phospho antibodies with gentle agitation overnight at 4° C., otherwise in blocking buffer for 2 hrs at room temperature). After washing and incubating with secondary horseradish peroxidase conjugated antibodies against mouse or rabbit IgG (Amershan, Arlington Heoghts, Ill. Immunoreactive proteins were detected by the ECL (Amershan). Quantitation was performed by using NIH Imagine Software.

[3] = test system: estrogen responsive genes in wild-type MCF-7 cells; assay: Endogenous estrogen responsive gene induction (immunoblot); conditions: 12 hr induction
Description: (§4) The cellharvest, cell extraction preparation and immunobloting were as above.

[4] = test system: parental MCF-7 tumors; assay: Parental MCF-7 tumor growth; format: in vivo, mice; conditions: wild-type MCF-7, tamoxifen
[5] = test system: ER in MCF-7 cells; assay: ERE luciferase reporter, ER dependent transcription; format: cell-based, human
[6] = test system: ER in MCF-7/HER-218 cells; assay: as above; format: cell-based, human
[7] = test system: primary breast cancer; assay: Five-year disease-free survival of node-positive breast cancer patients on tamoxifen adjuvant therapy, by AIB1 and HER-2 status; format: in vivo, human
Protocol: Frozen tumor specimens from 316 patients, all of whom had positive axillary lymph nodes at the time of initial surgery, were selected for study. Such patients have higher recurrence rates after primary treatment, resulting in more events for statistical power. […] The median follow-up for patients still living is 95 months. Proteins from 30 mg of tissue were extracted in 300 μl 5% SDS at 90° C. for 5 minutes. Protein concentration was determined using the BCA method (Pierce, Rockford, Ill.); typical yields were 2-5 μg/μl. Samples were stored at −70° C. until use.
Assays were performed and results quantified by an investigator blinded to clinical information. 20 μg of extracted protein in sample buffer (0.05 M tris, pH 6.8, containing 2% SDS, 2.5% β-mercaptoethanol, 10% glycerol, and 0.1% bromphenol blue as tracking dye) were placed in boiling water for 2 minutes, cooled to room temperature, and centrifuged for 1 minute. An MCF-7 reference standard (5 μg protein per lane) was included on each gel as a normalization control. Proteins were electrophoresed on 8% Tricine-Glycine polyacrylamide gels (Invitrogen, Carlsbad, Calif.) and then transferred onto nitrocellulose. Blots were rinsed 5 minutes with TBS (TRIS-buffered saline: 100 mM TRIS, pH 7.5, and 0.9% NaCl) containing 0.1% Tween-20 (TBST). After blocking with 5% nonfat dry milk in TBST, the blots were incubated overnight at 4° C. in the primary antibody (1:1000 rabbit anti-RAC3 antiserum). This antibody was raised in rabbits against a MBP fusion protein containing amino acid residues 582-842 of human RAC3 (AIB1).
The blots were washed 3 times in TBST, followed by incubation for 1 hour in 5% nonfat dry milk in TBST and 1:5000 horseradish peroxidase labeled anti-rabbit Ig (Amersham, Piscataway, N.J.). The blots were washed 5 times in TBST, after which the labeled protein was visualized on a FluorChem digital imaging system (Alpha Innotech, San Leandro, Calif.) using an enhanced chemiluminescence detection system. Band intensities were measured densitometrically using the AlphaEaseFC software (Alpha Innotech, San Leandro, Calif.). AIB1 levels in tumors were normalized to the AIB1 concentration in the MCF-7 positive control lysate (5 μg) from the same immunoblot.
ER and progesterone receptors (PR) were measured by ligand binding assays as described by Harvey et al., 1999. S-phase fraction was calculated by DNA flow cytometry and classified as low, intermediate, or high (Wenger et al, 1998). Immunohistochemistry was used to semiquantitatively measure p53 and bcl 2 expression, and HER-2 expression was determined by western blot analyses as described by Elledge et al., 1997, and Tandon et al., 1989.
Associations between AIB1, steroid receptors, HER-2 and other molecular markers, and clinical variables were assessed using Spearman rank correlation. The disease-free survival (DFS) was calculated from the date of diagnosis. First recurrence (local or distant) was scored as an event, and patients without recurrence were censored at the time of last follow-up or death, meaning that an event of interest (e.g., recurrence or death) has not yet occurred. For graphical presentation, follow-up was truncated at 120 months. Overall survival was calculated from the date of diagnosis, with death from any cause being scored as an event. Patients who were alive at the last follow-up were censored at the last follow-up date. Survival curves were derived from Kaplan-Meier estimates, which are well known in the art, and the curves were compared by log-rank tests. Initially, separate analyses were performed for treated and untreated patients. The influence of AIB1 adjusted for other prognostic factors was assessed in multivariate analysis by Cox proportional hazards models.

[8] = test system: phosphorylated MAPK, AIB1; assay: Immunoblot of MCF-7/HER-218 tumors from treated mice
Protocol: Treated cells were then immediately harvested. Cells were first rinsed twice with cold PBS, and lysed in 1×cell lysis buffer (Cell Signaling Technology) supplemented with 10% Glycerol, 1 mM Pherryl Methylsulfonyl Fluoride (PMSF), 1×Complete Protease inhibitor mixture (Roche, Indianapolis, Ind.), 1 μM Okadaic acid, 10 μg/mL Microsystin as instruction from Cell Signaling Technology. […] 20 μg of protein extracts from individual treatments were electrophoresized on SDS-PAGE gel (Invitrogen), and electroblotted to nitrocellulose membrane (Millipore, Bedford, Mass.). Membranes were blocked with blocking buffer (5% w/v nonfat dry milk in 1×TBS with 0.1% Tween-20, TBST) for 1 hr and then incubated with primary antibody in 5% BSA TBST (for all phospho antibodies with gentle agitation overnight at 4° C., otherwise in blocking buffer for 2 hrs at room temperature). After washing and incubating with secondary horseradish peroxidase conjugated antibodies against mouse or rabbit IgG (Amershan, Arlington Heoghts, Ill. Immunoreactive proteins were detected by the ECL (Amershan). Quantitation was performed by using NIH Imagine Software.

[9] = test system: AIB1 in MCF-7/HER-218 cells; assay: Western blot mobility shift of AIB1; format: cell-based, human
Protocol: (§1) In PPase treatment group, cell extracts were incubated with PPase prior to analysis as previously described. Antibody against AIB1 was used.

[10] = test system: ER, EGF-R, HER-2/neu, MAPK and AKT in MCF-7/HER-218 cells; assay: Phosphorylation analysis by western immunoblotting; conditions: for Phosphorylation of EGF-R, HER-2/neu and MAPK / Phosphorylation of ER on serine 118: short-term (20 minutes)
Protocol: as §2, §3

[11] = test system: MCF-7 cells; assay: S-phase fraction of cells; format: cell-based, human; conditions: agent alone
[12] = test system: estrogen responsive genes in MCF-7/HER-218 cells; assay: Endogenous estrogen responsive gene induction (immunoblot); conditions: for Protein expression of endogenous estrogen responsive genes: 12 hr induction
Description: as §4

[13] = test system: pS2 promoter in MCF-7/HER-218 cells; assay: Chromatin immunoprecipitation on the pS2 promoter; conditions: 20 minute incubation
Protocol: (§5) Wild type MCF7 and HER-2-18 cells were grown to 90% confluence in phenol red-free IMEM supplemented with 10% CDS FBS for 7 days, the cells were starved completely with phenol red-free IMEM (without serum) for overnight. […] Cells were pelleted and lysis in 1 ML SDS lysis buffer and incubated on ice for 10 min. Lysate was sonicated by three times for 10 sec. at maximum setting followed by centrifugation for 10 min at 4 C. 200 ul of supernatant was, subjected to each immunoprecipitation with specific antibody, diluted with ChIP dilution buffer 10 fold and pre-cleared with 80 ul of SS-DNA/Protein A/G agarose plus 20 ul of normal mouse or rabbit IgG (Santa Cruz) depending on primary antibody used afterward for 4 hrs at 4 C. The beads were collected and saved as normal IgG control. The pre-cleared supernatant was immunoprecipitated with antibodies against ER, or AIB1, or NcoR, or Act-H3, respectively at 4° C. for overnight, followed by SS-DNA/Protein A/G at 4 C. for 1 hr. Pellet agarose by gentle centrifugation (1000 rpm, 1 min, 4° C.). The pellets were intensively washed sequentially as follows in 1 ml volume: low salt wash buffer X 1 time, high salt wash buffer X 1 time, LiCl salt wash buffer X 1 time, TE X 2 times. […]

[14] = test system: MCF-7/HER-218 cells; assay: S-phase fraction of cells; format: cell-based, human; conditions: agent alone
[15] = test system: HER-2/neu and MAPK in BT474 cells; assay: Phosphorylation analysis by western immunoblotting; conditions: 20 minute treatment
Protocol: as §3

[16] = test system: pS2 promoter in MCF-7 cells; assay: Chromatin immunoprecipitation on the pS2 promoter; conditions: 20 minute incubation
Protocol: as §5

[17] = test system: AIB1 in MCF-7 cells; assay: Western blot mobility shift of AIB1; format: cell-based, human; conditions: reversed by phosphatase treatment
Protocol: as §1

For `CC/C(=C(\c1ccccc1)c1ccc(OCCN(C)C)cc1)c1ccccc1` [tamoxifen], the Tumor growth [1] was “increased tumor growth; also recorded: stimulated”, the MAPK phosphorylation ([2]; 48 hour treatment) was “no effect” and the “Phosphorylation of ER” value ([2]; 48 hour treatment) was “still evident”. The “Phosphorylation of EGF-R and HER-2/neu” value [2] was “could not detect phosphorylation”, the “Phosphorylation of ER on serine 118” value [2] was “phosphorylate” and the “Phosphorylation of MAPK and AKT” value [2] was “could not detect phosphorylation”. The “Protein expression of endogenous estrogen responsive genes” value [3] was “no agonist activity”, the Tumor growth [4] was “inhibited” and the ERE luciferase activity ([5]; agent alone) was “no agonist activity”. The “ERE luciferase activity above control” value ([6]; agent alone) was “inability”, the “5 yr DFS” value ([7]; High HER-2 (grade 2-4), High AIB1 (top quartile)) was 42% and the “5 yr DFS” value ([7]; High HER-2 (grade 2-4), High AIB1 (top quartile), listed as Tamoxifen) was 42%. For the same compound, the “5 yr DFS” value ([7]; High HER-2 (grade 2-4), Low AIB1 (lower 3 quartiles)) was 77%, the “5 yr DFS” value ([7]; High HER-2 (grade 2-4), Low AIB1 (lower 3 quartiles), listed as Tamoxifen) was 77% and the “5 yr DFS” value ([7]; Low HER-2 (grade 0-1), High AIB1 (top quartile)) was 82%. The “5 yr DFS” value ([7]; Low HER-2 (grade 0-1), Low AIB1 (lower 3 quartiles)) was 64%, the “5-year DFS” value ([7]; other three groups combined (not high AIB1 and high HER-2)) was 70% and the “Total and phosphorylated AIB1 in tumors” value ([8]; MCF-7/HER-218 tumors of treated mice) was “induced; also recorded: both higher”. The “Tumor level of phosphorylated (active) MAPK” value ([8]; estrogen, or estrogen withdrawal plus tamoxifen, versus estrogen withdrawal alone) was “activate MAPK and high”, the “AIB1 phosphorylation (mobility shift of AIB1 band)” value [9] was “phosphorylation of AIB1 was observed” and the MAPK phosphorylation ([10]; 48 hour treatment) was “striking effects”. For the same compound, the “Phosphorylation of ER” value ([10]; 48 hour treatment) was “still evident”, the “Phosphorylation of EGF-R, HER-2/neu and MAPK” value [10] was “phosphorylation was detected” and the “Phosphorylation of ER on serine 118” value [10] was “phosphorylated”. The “Percent of cells in S-phase” value [11] was “no agonist effect”, the “Protein expression of endogenous estrogen responsive genes” value [12] was “behaved as an estrogen agonist on all of the genes” and the “Occupancy of the pS2 promoter” value [13] was “induced occupancy of the pS2 promoter by ER and by AIB1”. For the same compound, the “Fraction of cells in S-phase” value [14] was “stimulated the fraction of cells in S-phase”, the “Phosphorylated HER-2/neu and MAPK” value [15] was “striking increase” and the “Occupancy of the pS2 promoter” value [16] was “induced occupancy of this promoter by ER but not by AIB1”.

In the case of “EGF: epidermal growth factor purchased from Invitrogen (NSDSECPLSHDGYCLHDGVCMYIEALDKYACNCVVGYIGERCQYRDLKWWELR; Epidermal growth factor; UniProt P01133 971-1023, looked up)”, the “Phosphorylation of EGF-R and HER-2/neu” value [2] is reported as “unable to detect phosphorylation”, the “Phosphorylation of ER on serine 118” value [2] is reported as “phosphorylate” and the “Phosphorylation of MAPK and AKT” value [2] is reported as “did phosphorylate MAPK and AKT”. For the same compound, the “Phosphorylation of EGF-R, HER-2/neu and MAPK” value [10] was “phosphorylation was detected” and the “Phosphorylation of ER on serine 118” value [10] was “phosphorylated”.

In the case of heregulin, the “Phosphorylation of EGF-R and HER-2/neu” value [2] is reported as “strongly phosphorylated”, the “Phosphorylation of ER on serine 118” value [2] is reported as “phosphorylate” and the “Phosphorylation of MAPK and AKT” value [2] is reported as “strongly phosphorylated”. The “Protein expression of endogenous estrogen responsive genes” value [3] was “induced the expression of all of the genes except for progesterone receptor”, the ERE luciferase activity ([5]; heregulin added to estrogen) was “two fold” and the ERE luciferase activity ([5]; heregulin added to tamoxifen) was “increase luciferase activity a small amount”. The “ERE luciferase activity in response to both estrogen and tamoxifen” value ([6]; heregulin added) was “remarkably enhanced luciferase activity”, the “Estrogen agonist properties of tamoxifen (luciferase)” value ([6]; heregulin added to tamoxifen) was “levels above estrogen alone” and the “AIB1 phosphorylation (mobility shift of AIB1 band)” value [17] was “upshifted the AIB1 band”. For the same compound, the “AIB1 phosphorylation (mobility shift of AIB1 band)” value [9] was “phosphorylation of AIB1 was observed”, the “Phosphorylation of EGF-R, HER-2/neu and MAPK” value [10] was “phosphorylation was detected” and the “Phosphorylation of ER on serine 118” value [10] was “phosphorylated”. For the same compound, the “Percent of cells in S-phase” value [11] was “markedly increased the S-phase fraction”, the “Protein expression of endogenous estrogen responsive genes” value [12] was “dramatic effects on several of these genes” and the “Level of IRS1” value ([12]; heregulin) was “large increase”. The “Protein expression of progesterone receptor” value ([12]; heregulin) was “increased” and the “Fraction of cells in S-phase” value [14] was “stimulated the fraction of cells in S-phase”.

— patent publication US20030224467A1, “AIB1 as a prognostic marker and predictor of resistance to endocrine therapy” (priority 2002, published 2003)
